Experimental findings from patent US20090311217A1, “3-SUBSTITUTED-1H-INDOLE COMPOUNDS, THEIR USE AS MTOR KINASE AND PI3 KINASE INHIBITORS, AND THEIR SYNTHESES” (priority 2008, published 2009) are described below.

Each structure is given as a SMILES string. Read-outs that look alike come from different tables or passages of the source.

What all share (assay type): biochemical
In one experiment the target is PI3K-gamma (Homo sapiens, UniProt P48736). Nature of the experiment: PI3K-gamma fluorescence polarization assay. The following applies: PI3Kγ Avg. IC50. The method, boiled down: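 Reactions in 5 mM HEPES pH 7, 2.5 mM MgCl2, 25 μM ATP with 2.5 μM diC8-PI(4,5)P2 and 5 ng enzyme, 1 h at 25° C, then EDTA quench. Product detected by FP using GST-GRP1 PH domain (100 nM) and BODIPY-TMR-IP4 tracer (5 nM); final DMSO 0.8%.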

The next experiment concerns the target PI3K-alpha (Homo sapiens, UniProt P42336). Nature of the experiment: PI3K-alpha fluorescence polarization assay. On the technique in general: In fluorescence polarisation assays a small probe gives low polarisation when free and higher when bound to something large.
In the next experiment the target is PI3K-beta (Homo sapiens, UniProt P42338). Put plainly: PI3K-beta fluorescence polarization assay. The following applies: read-out: PI3Kβ Avg. IC50. As to the method: PI3K-Alpha, PI3K-Beta, PI3K-Gamma, and PI3K-delta Fluorescence Polarization Assay Protocols
PI3-Kinase reactions were performed in 5 mM HEPES, pH 7, 2.5 mM MgCl2, and 25 μM ATP, with diC8-PI(4,5)P2 (Echelon, Salt Lake City Utah) as substrate. Nunc 384-well black polypropylene fluorescent plates were used for PI3K assays. Reactions were quenched by the addition of EDTA to a final concentration of 10 mM. Final reaction volumes were 10 μl. For evaluation of PI3K inhibitors, 5 ng of enzyme (PI3K-alpha, beta, gamma, or delta) and 2.5 μM of substrate was used per […] reaction volume, and inhibitor concentrations ranged from 100 μM to 20 μM; the final level of DMSO in reactions never exceeded 2%. Reactions were allowed to proceed for one hour at 25° C. After 1 hour, GST-tagged GRP1 (general receptor for phosphoinositides) PH domain fusion protein was added to a final concentration of 100 nM, and BODIPY-TMRI(1,3,4,5)P4 (Echelon) was also added to a final concentration of 5 nM. Final sample volumes were 25 μl with a final DMSO concentration of 0.8%. Assay Plates were read on Perkin-Elmer Envision plate readers with appropriate filters for Tamra [BODIPY-TMRI(1,3,4,5)P4]. Data obtained were used to calculate enzymatic activity and enzyme inhibition by inhibitor compounds.

The target of the next experiment is T1, human TOR (Homo sapiens, UniProt P42345).
T1 construct: FLAG
Nature of the experiment: mTOR enzyme assay (DELFIA, His6-S6K substrate). The conditions noted are these: read-out: mTOR Kinase Avg. IC50.

Another experiment has as its target PI3K-delta (Homo sapiens, UniProt O00329). Nature of the experiment: PI3K-delta fluorescence polarization assay. The conditions noted are these: read-out: PI3Kδ Avg. IC50.

Sequence of PI3K-alpha (P42336 whole entry, species assumed): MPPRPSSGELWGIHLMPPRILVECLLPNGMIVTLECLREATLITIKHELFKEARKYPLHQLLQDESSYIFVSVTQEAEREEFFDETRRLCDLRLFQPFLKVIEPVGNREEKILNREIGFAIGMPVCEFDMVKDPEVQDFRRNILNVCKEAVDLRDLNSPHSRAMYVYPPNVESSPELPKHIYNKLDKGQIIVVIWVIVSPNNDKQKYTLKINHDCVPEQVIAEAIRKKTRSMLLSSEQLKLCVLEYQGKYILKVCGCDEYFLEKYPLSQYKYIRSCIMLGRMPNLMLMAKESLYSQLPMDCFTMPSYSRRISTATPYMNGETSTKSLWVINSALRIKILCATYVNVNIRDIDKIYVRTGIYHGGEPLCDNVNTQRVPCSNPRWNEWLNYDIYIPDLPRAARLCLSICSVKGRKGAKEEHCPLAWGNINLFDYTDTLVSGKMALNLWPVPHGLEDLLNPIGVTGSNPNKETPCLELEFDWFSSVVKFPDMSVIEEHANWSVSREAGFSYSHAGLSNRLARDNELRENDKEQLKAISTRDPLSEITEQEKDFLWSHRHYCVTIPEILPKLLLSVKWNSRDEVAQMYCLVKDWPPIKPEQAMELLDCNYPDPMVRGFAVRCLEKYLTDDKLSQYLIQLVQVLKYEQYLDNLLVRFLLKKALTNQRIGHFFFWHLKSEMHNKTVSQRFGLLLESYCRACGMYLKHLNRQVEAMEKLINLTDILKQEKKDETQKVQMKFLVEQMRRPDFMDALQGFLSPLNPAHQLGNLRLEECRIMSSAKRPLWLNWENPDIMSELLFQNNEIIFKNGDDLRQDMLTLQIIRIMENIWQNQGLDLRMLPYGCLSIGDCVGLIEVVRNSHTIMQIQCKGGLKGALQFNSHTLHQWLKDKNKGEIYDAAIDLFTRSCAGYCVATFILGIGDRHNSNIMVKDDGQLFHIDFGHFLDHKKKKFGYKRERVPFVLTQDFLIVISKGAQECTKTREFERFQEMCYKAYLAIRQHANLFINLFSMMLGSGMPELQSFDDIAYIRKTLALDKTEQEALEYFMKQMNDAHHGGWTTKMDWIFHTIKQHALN
Sequence of PI3K-alpha (P27986 whole entry partner, species assumed): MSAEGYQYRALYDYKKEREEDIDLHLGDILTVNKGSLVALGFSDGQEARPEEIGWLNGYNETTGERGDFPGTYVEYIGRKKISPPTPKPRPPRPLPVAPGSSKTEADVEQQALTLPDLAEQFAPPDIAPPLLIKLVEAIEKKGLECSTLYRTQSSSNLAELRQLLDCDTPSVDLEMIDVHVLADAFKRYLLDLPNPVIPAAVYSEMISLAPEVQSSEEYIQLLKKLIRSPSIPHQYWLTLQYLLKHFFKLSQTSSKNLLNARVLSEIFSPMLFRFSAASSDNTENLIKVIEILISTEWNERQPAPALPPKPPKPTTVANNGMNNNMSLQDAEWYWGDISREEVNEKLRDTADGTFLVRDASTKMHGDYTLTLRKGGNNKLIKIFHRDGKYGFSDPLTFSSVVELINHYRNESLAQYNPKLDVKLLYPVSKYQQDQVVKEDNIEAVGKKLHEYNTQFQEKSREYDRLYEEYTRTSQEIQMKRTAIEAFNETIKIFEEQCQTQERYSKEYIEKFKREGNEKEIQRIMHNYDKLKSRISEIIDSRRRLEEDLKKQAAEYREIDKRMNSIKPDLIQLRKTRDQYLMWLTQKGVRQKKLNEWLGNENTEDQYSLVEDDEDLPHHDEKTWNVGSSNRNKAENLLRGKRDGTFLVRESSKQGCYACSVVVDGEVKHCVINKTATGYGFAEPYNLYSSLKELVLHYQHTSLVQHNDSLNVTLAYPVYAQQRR
Sequence of PI3K-delta (O00329 whole entry, species assumed): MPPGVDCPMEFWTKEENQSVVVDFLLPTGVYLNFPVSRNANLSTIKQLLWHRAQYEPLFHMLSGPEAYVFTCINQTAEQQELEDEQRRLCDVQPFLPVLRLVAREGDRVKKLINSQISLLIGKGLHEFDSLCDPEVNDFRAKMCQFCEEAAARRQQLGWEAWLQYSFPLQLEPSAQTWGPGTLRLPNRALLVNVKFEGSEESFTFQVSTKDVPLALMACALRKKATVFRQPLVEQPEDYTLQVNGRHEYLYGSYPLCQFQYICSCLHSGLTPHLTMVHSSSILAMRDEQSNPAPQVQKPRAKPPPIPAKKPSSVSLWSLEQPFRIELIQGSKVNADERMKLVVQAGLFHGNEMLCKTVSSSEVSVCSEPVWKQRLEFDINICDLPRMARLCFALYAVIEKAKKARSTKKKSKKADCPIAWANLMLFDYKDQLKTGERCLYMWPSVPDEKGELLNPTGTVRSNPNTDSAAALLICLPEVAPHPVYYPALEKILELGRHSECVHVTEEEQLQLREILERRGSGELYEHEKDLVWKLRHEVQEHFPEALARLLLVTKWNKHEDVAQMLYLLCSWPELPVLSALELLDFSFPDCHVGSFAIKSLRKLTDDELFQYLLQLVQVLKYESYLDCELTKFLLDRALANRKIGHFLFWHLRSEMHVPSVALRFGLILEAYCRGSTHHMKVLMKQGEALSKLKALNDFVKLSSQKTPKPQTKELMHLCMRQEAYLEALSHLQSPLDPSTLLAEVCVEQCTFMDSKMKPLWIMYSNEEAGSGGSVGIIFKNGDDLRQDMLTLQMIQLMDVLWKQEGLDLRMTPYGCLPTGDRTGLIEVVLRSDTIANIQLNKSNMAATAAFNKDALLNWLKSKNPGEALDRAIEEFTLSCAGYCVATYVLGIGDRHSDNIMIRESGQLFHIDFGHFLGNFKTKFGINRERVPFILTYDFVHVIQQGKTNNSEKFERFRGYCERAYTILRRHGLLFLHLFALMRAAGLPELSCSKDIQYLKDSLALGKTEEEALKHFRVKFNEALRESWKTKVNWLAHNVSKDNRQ
Sequence of PI3K-delta (P27986 whole entry partner, species assumed): as the sequence (P27986 whole entry partner, species assumed) above
Sequence of PI3K-gamma (P48736 whole entry, species assumed, the tested form may be a part): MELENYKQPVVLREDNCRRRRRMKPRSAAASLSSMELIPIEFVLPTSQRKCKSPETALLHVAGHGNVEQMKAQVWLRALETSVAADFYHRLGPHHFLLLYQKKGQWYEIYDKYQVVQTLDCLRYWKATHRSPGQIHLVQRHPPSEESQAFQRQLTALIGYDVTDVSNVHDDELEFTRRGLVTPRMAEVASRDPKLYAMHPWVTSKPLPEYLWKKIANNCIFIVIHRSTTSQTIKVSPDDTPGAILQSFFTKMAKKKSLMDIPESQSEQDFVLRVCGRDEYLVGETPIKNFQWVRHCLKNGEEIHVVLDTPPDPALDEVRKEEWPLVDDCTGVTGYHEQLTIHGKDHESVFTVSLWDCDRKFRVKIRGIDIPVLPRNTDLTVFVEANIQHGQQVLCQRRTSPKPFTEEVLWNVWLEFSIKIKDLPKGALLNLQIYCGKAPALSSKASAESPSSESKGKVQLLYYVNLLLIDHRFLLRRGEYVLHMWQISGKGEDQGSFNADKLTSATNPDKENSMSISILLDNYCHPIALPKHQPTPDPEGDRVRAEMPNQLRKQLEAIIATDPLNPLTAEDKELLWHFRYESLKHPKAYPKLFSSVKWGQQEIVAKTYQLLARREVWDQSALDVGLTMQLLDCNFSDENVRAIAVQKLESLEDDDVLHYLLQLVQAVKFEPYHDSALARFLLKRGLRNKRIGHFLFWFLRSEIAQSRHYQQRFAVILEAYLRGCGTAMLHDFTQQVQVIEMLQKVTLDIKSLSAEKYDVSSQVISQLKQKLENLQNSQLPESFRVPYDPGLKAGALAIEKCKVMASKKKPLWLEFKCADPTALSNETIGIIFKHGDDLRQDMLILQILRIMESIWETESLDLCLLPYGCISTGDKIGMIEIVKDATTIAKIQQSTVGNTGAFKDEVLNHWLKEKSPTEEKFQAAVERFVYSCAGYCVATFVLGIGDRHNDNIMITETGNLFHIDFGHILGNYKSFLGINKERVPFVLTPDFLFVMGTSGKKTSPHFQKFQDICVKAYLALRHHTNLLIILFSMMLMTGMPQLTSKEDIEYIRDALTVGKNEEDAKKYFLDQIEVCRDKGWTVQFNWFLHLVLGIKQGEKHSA
Sequence of PI3K-beta (P42338 whole entry, species assumed): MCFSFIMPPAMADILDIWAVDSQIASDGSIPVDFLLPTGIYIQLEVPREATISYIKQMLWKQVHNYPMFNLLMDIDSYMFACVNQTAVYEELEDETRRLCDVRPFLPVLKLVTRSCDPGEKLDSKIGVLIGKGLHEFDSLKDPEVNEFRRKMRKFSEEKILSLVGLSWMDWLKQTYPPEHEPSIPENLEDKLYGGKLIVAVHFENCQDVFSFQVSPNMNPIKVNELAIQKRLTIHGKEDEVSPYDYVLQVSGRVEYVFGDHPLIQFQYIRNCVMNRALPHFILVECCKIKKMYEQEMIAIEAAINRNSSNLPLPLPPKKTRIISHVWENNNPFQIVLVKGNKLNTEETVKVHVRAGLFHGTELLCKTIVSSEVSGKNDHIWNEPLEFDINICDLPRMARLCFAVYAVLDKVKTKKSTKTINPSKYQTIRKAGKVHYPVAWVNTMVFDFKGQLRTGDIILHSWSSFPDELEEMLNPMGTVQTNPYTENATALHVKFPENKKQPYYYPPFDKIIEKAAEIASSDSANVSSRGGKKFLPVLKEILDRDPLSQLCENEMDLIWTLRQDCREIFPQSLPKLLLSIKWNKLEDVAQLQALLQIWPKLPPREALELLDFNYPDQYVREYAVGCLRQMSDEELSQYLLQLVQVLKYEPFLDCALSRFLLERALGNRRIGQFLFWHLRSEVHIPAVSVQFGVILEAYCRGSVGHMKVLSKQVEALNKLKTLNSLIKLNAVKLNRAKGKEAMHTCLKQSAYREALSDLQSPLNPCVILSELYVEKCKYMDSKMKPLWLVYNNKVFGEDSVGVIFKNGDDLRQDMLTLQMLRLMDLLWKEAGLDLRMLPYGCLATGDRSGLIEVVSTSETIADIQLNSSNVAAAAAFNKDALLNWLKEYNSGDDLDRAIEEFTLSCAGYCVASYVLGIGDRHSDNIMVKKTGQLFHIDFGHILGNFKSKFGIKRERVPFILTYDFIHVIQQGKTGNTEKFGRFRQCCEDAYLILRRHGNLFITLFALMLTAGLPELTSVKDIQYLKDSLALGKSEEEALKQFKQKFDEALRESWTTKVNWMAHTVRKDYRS
Sequence of PI3K-beta (P27986 whole entry partner, species assumed): as the sequence (P27986 whole entry partner, species assumed) above

For `COc1ccc2c(c1)c(/C=C1\Oc3cc(O)cc(O)c3C1=O)c(C(=O)N(C)C)n2CCN1CCC(O)C1` (stereo not drawn) [Example 306, 3-[(Z)-(4,6-Dihydroxy-3-oxo-1-benzofuran-2(3H)-ylidene)methyl]-1-[2-(3-hydroxypyrrolidin-1-yl)ethyl]-5-methoxy-N,N-dimethyl-1H-indole-2-carboxamide], the IC50 (in general, the concentration that gives 50% inhibition) at PI3K-gamma was 144 nM; at PI3K-alpha (read-out: PI3Kα Avg. IC50) it was 8.5 nM; on PI3K-beta, 20.5 nM; at human TOR it was 130 nM; on PI3K-delta, 3 nM.
Take `COc1ccc2c(c1)c(C=C1Oc3cc(O)cc(O)c3C1=O)c(C)n2CCN1CCN(C)CC1` [Example 108, 4,6-dihydroxy-2-({5-methoxy-2-methyl-1-[2-(4-methylpiperazin-1-yl)ethyl]-1H-indol-3-yl}methylene)-1-benzofuran-3(2H)-one]: the IC50 against PI3K-gamma is 474 nM; against PI3K-alpha (PI3Kα Avg. IC50), 5 nM; at PI3K-beta, 7.5 nM; on human TOR it was < 34 nM.
With `O=C1/C(=C/c2c(-c3ccc(Cl)cc3)[nH]c3ccccc23)Oc2c1ccc(O)c2O` [Example 54, (2Z)-2-{[2-(4-chlorophenyl)-1H-indol-3-yl]methylene}-6,7-dihydroxy-1-benzofuran-3(2H)-one], the IC50 stood at 1060 nM against PI3K-gamma; 111 nM on PI3K-alpha (read-out: PI3Kα Avg. IC50); 98 nM at PI3K-beta; 9600 nM at human TOR; 33.5 nM at PI3K-delta.
Regarding `COc1ccc2c(c1)c(/C=C1\Oc3cc(O)ccc3C1=O)c(C)n2CCCN(C)C` [Example 307, (2Z)-2-({1-[3-(Dimethylamino)propyl]-5-methoxy-2-methyl-1H-indol-3-yl}methylene)-6-hydroxy-1-benzofuran-3(2H)-one], the IC50 turned out to be 1820 nM against PI3K-gamma; 18.5 nM at PI3K-alpha (read-out: PI3Kα Avg. IC50); 72.5 nM on PI3K-beta; 3700 nM at human TOR; 2.5 nM on PI3K-delta.
Take `COc1ccc2c(c1)c(/C=C1\Oc3cc(O)cc(O)c3C1=O)c(C)n2CCN1CCC(O)C1` (stereo not drawn) [Example 327, (2Z)-4,6-Dihydroxy-2-({1-[2-(3-hydroxypyrrolidin-1-yl)ethyl]-5-methoxy-2-methyl-1H-indol-3-yl}methylene)-1-benzofuran-3(2H)-one]: the IC50 against PI3K-gamma is 39 nM; at PI3K-alpha (read-out: PI3Kα Avg. IC50), 11 nM; at PI3K-beta it was 9.5 nM; at human TOR, < 30 nM; on PI3K-delta, 2.5 nM.
Consider `O=C1/C(=C/c2c[nH]c3ccc(Br)cc23)Oc2cc(O)cc(O)c21` [Example 50, (2Z)-2-[(5-bromo-1H-indol-3-yl)methylene]-4,6-dihydroxy-1-benzofuran-3(2H)-one], for which the IC50 against PI3K-gamma stood at 1620 nM; on PI3K-alpha (PI3Kα Avg. IC50) it was 422 nM; at PI3K-beta it was 358 nM; at human TOR, 3700 nM; at PI3K-delta, 387 nM.
On the same counts, the results for `COc1ccc2c(c1)c(C=C1Oc3cc(O)cc(O)c3C1=O)cn2CCCN(C)C` [Example 114, 2-({1-[3-(dimethylamino)propyl]-5-methoxy-1H-indol-3-yl}methylene)-4,6-dihydroxy-1-benzofuran-3(2H)-one] are 2420 nM, 40 nM, 221 nM, 2120 nM and 11.5 nM.
Consider `COc1ccc2[nH]c(C)c(C=C3Oc4cccc(O)c4C3=O)c2c1` [Example 86, 4-hydroxy-2-[(5-methoxy-2-methyl-1H-indol-3-yl)methylene]-1-benzofuran-3(2H)-one], for which the IC50 against PI3K-gamma is 355 nM; on PI3K-alpha (read-out: PI3Kα Avg. IC50) it was 184 nM; at PI3K-beta, 98 nM; at human TOR, 84.8 nM; on PI3K-delta it was 47 nM.
Consider `COc1ccc2[nH]c(-c3ccccc3)c(C=C3Oc4cc(O)cc(O)c4C3=O)c2c1` [Example 70, 4,6-dihydroxy-2-[(5-methoxy-2-phenyl-1H-indol-3-yl)methylene]-1-benzofuran-3(2H)-one], for which the IC50 is 13.4 nM against PI3K-gamma, 26 nM on PI3K-beta, < 30 nM at human TOR and 5.3 nM at PI3K-delta.
Consider `COc1ccc2c(c1)c(/C=C1\Oc3cc(O)c(Br)cc3C1=O)c(C)n2CCN1CCN(C)CC1` [Example 349, (2Z)-5-Bromo-6-hydroxy-2-({5-methoxy-2-methyl-1-[2-(4-methylpiperazin-1-yl)ethyl]-1H-indol-3-yl}methylene)-1-benzofuran-3(2H)-one], for which the IC50 against PI3K-gamma was 5590 nM; at PI3K-alpha (read-out: PI3Kα Avg. IC50) it was 82.5 nM; on PI3K-beta, 931 nM; on human TOR, > 20000 nM; on PI3K-delta it was 19 nM.
For the molecule `O=C1/C(=C/c2c(-c3ccccc3)[nH]c3ccccc23)Oc2c1ccc(O)c2O` [Example 53, (2Z)-6,7-dihydroxy-2-[(2-phenyl-1H-indol-3-yl)methylene]-1-benzofuran-3(2H)-one], the IC50 against PI3K-gamma was 1470 nM; on PI3K-alpha (read-out: PI3Kα Avg. IC50) it was 182 nM; on PI3K-beta it was 132 nM; at human TOR it was > 30000 nM; on PI3K-delta it was 70.3 nM.
Turning to `COc1ccc2c(c1)c(C=C1Oc3cc(O)cc(O)c3C1=O)c(C)n2CCCCN1CCOCC1` [Example 97, 4,6-dihydroxy-2-{[5-methoxy-2-methyl-1-(4-morpholin-4-ylbutyl)-1H-indol-3-yl]methylene}-1-benzofuran-3(2H)-one], the half-maximal inhibitory concentration (IC50) was 138 nM against PI3K-gamma; 8.7 nM at PI3K-alpha (read-out: PI3Kα Avg. IC50); 9 nM at PI3K-beta; < 47 nM at human TOR; 0.9 nM on PI3K-delta.
On the same counts, the results for `COc1ccc2c(c1)c(C=C1Oc3cc(O)cc(O)c3C1=O)c(C)n2CCCCN1CCN(C)CC1` [Example 96, 4,6-dihydroxy-2-({5-methoxy-2-methyl-1-[4-(4-methylpiperazin-1-yl)butyl]-1H-indol-3-yl}methylene)-1-benzofuran-3(2H)-one] are 238 nM, 11.3 nM, 10 nM, < 31 nM and 2 nM.
In the case of `CNC(=O)Nc1ccc2c(c1)C(=O)/C(=C/c1c(-c3c(C)nn(C)c3C)[nH]c3ccc(OC)cc13)O2` [Compound 627, 1-[(2Z)-2-{[5-methoxy-2-(1,3,5-trimethyl-1H-pyrazol-4-yl)-1H-indol-3-yl]methylidene}-3-oxo-2,3-dihydro-1-benzofuran-5-yl]-3-methylurea], the IC50 at PI3K-gamma was 4.65 nM; at PI3K-alpha (read-out: PI3Kα Avg. IC50), 0.6 nM; on PI3K-beta, 28.5 nM; on PI3K-delta it was 4.5 nM.
For the molecule `COc1ccc2c(c1)c(/C=C1\Oc3cc(O)cc(O)c3C1=O)c(C)n2CCN1CCN(C)CC1` [Example 309, (2Z)-4,6-Dihydroxy-2-({5-methoxy-2-methyl-1-[2-(4-methylpiperazin-1-yl)ethyl]-1H-indol-3-yl}methylene)-1-benzofuran-3(2H)-one], the IC50 was 268 nM on PI3K-gamma, 2 nM on PI3K-alpha (read-out: PI3Kα Avg. IC50), 6.5 nM at PI3K-beta and < 27 nM on human TOR.
As for `COc1ccc2c(c1)c(C=C1Oc3cc(O)cc(O)c3C1=O)c(C)n2CCCCCl` [Example 87, 2-{[1-(4-chlorobutyl)-5-methoxy-2-methyl-1H-indol-3-yl]methylene}-4,6-dihydroxy-1-benzofuran-3(2H)-one], the IC50 against PI3K-gamma is 142 nM; at PI3K-beta, 72 nM; on human TOR it was < 24 nM; on PI3K-delta, 6 nM.
